Reference: patent US9340788B2 (priority 2007, dated 2016)

Experiments:
HCMV = HCMV IE1 / viral gene expression, western blot of infected cells; format: cell-based, Human cytomegalovirus; settings: for HCMV IE1 gene expression: IMC-3G3 10 μg/ml 12 h or Gleevec 100 nM 1 h pre-treatment, western blot
Experimental: (A) pp65 immunofluorescence after HCMV treatment (1 h, 4° C.) followed by shifting to 37° C. for indicated times. Rows represent (top to bottom): HEL, PDGFRα null fibroblasts, parental fibroblasts, null fibroblasts overexpressing hPDGFRα, HEL transfected with control, or PDGFRα siRNA. Nuclei were stained with DAPI. (B) Average±S.D. pp65 positive/100 cells counted in triplicate from (A). (C) Mock or HCMV infected cells were analyzed by western blotting with the indicated antibodies. Lanes 1-4 indicate HEL, 325S, PDGFRα null and PDGFRα null over-expressing hPDGFRα, respectively. (D) HEL transfected with control or PDGFRα siRNA were mock (lanes 1) or HCMV-treated (lanes 2) and subjected to western blots with indicated antibodies. (E) Western blot of HEL and U87 lysates after infection with mock (lanes 1), HCMV (lanes 2), or HCMV pretreated with IMC-3G3 (10 μg/ml, 12 h, lanes 3) or Gleevec (100 nM, 1 h, lanes 4). (F) PDGFRα siRNA treated cells infected with indicated HCMV strains and immunostained for IE1 12 hpi (primary infection). 6 dpi, supernatants were used to infect naïve HEL cells, followed by IE1 immunostaining and quantification (secondary infection). Average (n=6) values±S.D. are shown.
HUVEC cells were pre-treated with IMC-3G3 (10 μg/ml, Imclone, 12 h), or Gleevec (100 nM, 1 h) prior to HCMV or mock infection. 12 hours post-infection, cell lysates were analyzed by western blot for the presence of IE1 gene product. […] The same blot was stripped and re-probed for actin (lower panel). Lane designation is 1—Mock, 2—HCMV, 3—IMC-3G3+HCMV, 4—Gleevec+HCMV.
Upper panel: HEL cells pretreated with anti-human PDGFRα antibody (10 ng/ml, for 30 min, clone AF-307-NA from R&D; lanes 1 and 3) or with AG 1295 (lane 4, […], from Calbiochem) were stimulated with Towne HCMV (lanes 2 through 4) or Mock infected (lane 1) for 10 min at 37 C. Cells were washed and further incubated for 2 h at 37 C (to allow expression of IE1 gene product). Afterwards, cells were harvested in RIPA buffer and processed for western blotting as described.
Western Blot, Immunoprecipitation, and Immunofluorescence analyses. For stimulation experiments, cells were serum-starved for 24 h, followed by stimulation with HCMV (MOI of 0.5), PDGF-AA (5-10 ng/ml, from R&D Systems), or mock, for 10 minutes. In some cases, cells were pre-treated with IMC-3G3 (ImClone Inc.) at 10 µg/ml (2 or 12 h) or Gleevec® (100 nM, 1 h) prior to HCMV exposure. Cell lysates were analyzed by SDS-PAGE. Antibodies used were as follows: polyclonal anti-PDGFRα ( 1/500), phosphor-Tyrosine clone 4G10 ( 1/1000), and monoclonal anti-p85 PI3-K ( 1/1000), (Upstate Biotechnology), anti HCMV IE1 MAB810 (Chemicon; 1/1000), anti HCMV pp65 (Novocastra, 1/1000), anti-phosphor-PDGFRα ( 1/500, pTyr 754), anti-phosphor-Akt (Ser 473, 1/1000) and total Akt ( 1/1000; all from Cell Signaling). Anti-actin polyclonal control antibody was used ( 1/500, Sigma). Immunoprecipitations were performed using protein G (Pierce) according to manufacturer's instructions. For immunofluorescence, monoclonal HCMV pp65 and phosphor-PDGFRα (p-Tyr 754, Santa Cruz Biotechnology) were used, overnight at 4° C., followed by 1 hour incubation with secondary antibodies conjugated to Alexa-488, or Alexa 568 ( 1/5,000, Molecular Probes). Nuclei were counterstained with DAPI. Co-immunoprecipitation experiments were performed using full length soluble purified recombinant gB (gB 680, from Don Diamond, City of Hope, Calif.) and detergent soluble extract of HEL cells generated in lysis buffer (1% NP-40, 75 mM NaCl and 50 mM Tris-HCl). 500 μg of protein from total cell extract was incubated with 25 μg of gB 680 in lysis buffer in the presence of an anti-gB (Virusys, Inc) or anti-PDGFRα (R&D) antibody overnight at 4° C. Immune complexes were recovered with protein A-Sepharose beads (2 hr incubation), denatured and separated on SDS-PAGE for western blot with anti-gB (Virusys, Inc) or anti-PDGFRα (Cell Signaling Technology) antibodies.

PI3-K/Akt signaling = format: cell-based, human; settings: HEL; 10 min stimulation; IMC-3G3 2 μg/ml or Gleevec 100 nM; p-Akt Ser 473
Experimental: (A) HEL cells stimulated with HCMV or PDGF-AA were subjected to immunoprecipitation and western blot analyses with indicated antibodies. (B) Phospho-PDGFRα ELISA of cells+/−pretreatment with IMC-3G3 (10 μg/ml, 2 h) followed by HCMV (MOI=1) or PDGF (10 ng/ml) for 10 min. Mean values (n=6)±S.D are shown. (C) Western blot of HEL mock, HCMV, or PDGF-AA stimulated (10 min), +/−IMC-3G3 (2 μg/ml) or Gleevec® (Imatinib) (100 nM). The same membrane was used for p-Akt^Ser 473 and Akt.
HEL cells pretreated with blocking reagents (as indicated; 30 min, 37 C) were stimulated for 10 min with HCMV, PDGF-AA (5 ng/ml), or mock-treated. Cell lysates were collected in RIPA buffer (supplemented with protease and phosphatase inhibitors) and subjected to Western blot analysis.
For stimulation experiments, cells were serum-starved for 24 h, followed by stimulation with HCMV (MOI of 0.5), PDGF-AA (5-10 ng/ml, from R&D Systems), or mock, for 10 minutes. In some cases, cells were pre-treated with IMC-3G3 (ImClone Inc.) at 10 g/ml (2 or 12 h) or Gleevec® (100 nM, 1 h) prior to HCMV exposure. Cell lysates were analyzed by SDS-PAGE. Antibodies used were as follows: polyclonal anti-PDGFRα ( 1/500), phosphor-Tyrosine clone 4G10 ( 1/1000), and monoclonal anti-p85 PI3-K ( 1/1000), (Upstate Biotechnology), anti HCMV IE1 MAB810 (Chemicon; 1/1000), anti HCMV pp65 (Novocastra, 1/1000), anti-phosphor-PDGFRα ( 1/500, pTyr 754), anti-phosphor-Akt (Ser 473, 1/1000) and total Akt ( 1/1000; all from Cell Signaling). Anti-actin polyclonal control antibody was used ( 1/500, Sigma). Immunoprecipitations were performed using protein G (Pierce) according to manufacturer's instructions.

## IMC-3G3: humanized PDGFRα blocking antibody (ImClone Inc.)
HCMV; HEL cells
  HCMV IE1 gene expression: completely inhibited
HCMV; HUVEC, pre-treated with IMC-3G3 10 μg/ml 12 h or Gleevec 100 nM 1 h, western blot 12 hours post-infection
  HCMV IE1 expression: completely inhibited
HCMV; U87 glioma cells
  HCMV IE1 gene expression: completely inhibited
HCMV; human epithelial, endothelial, and fibroblast cells
  HCMV gene expression: completely inhibited
PI3-K/Akt signaling
  Akt phosphorylation induced by either HCMV or PDGF-AA: abolished
